From PubChem BioAssay (NCI)
Values joined by “and” are separate entries in the source; they are usually repeats but may differ in a detail not shown here. Equal entries are not always repeated.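 Assay format: 96-well plates, 48-hour exposure. Abbreviation: GI50, concentration required for 50% inhibition of growth. TGI: total growth inhibition.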

Assays:
Assay in all cases: NCI anticancer screen, dose series, 48 h
BT-549 breast = test system: BT-549 breast
SR leukemia = test system: SR leukemia
SK-MEL-2 melanoma = test system: SK-MEL-2 melanoma
A498 renal = test system: A498 renal
NCI-H226 lung = test system: NCI-H226 lung
UO-31 renal = test system: UO-31 renal
RPMI-8226 leukemia = test system: RPMI-8226 leukemia
MDA-MB-231 breast = test system: MDA-MB-231 breast
NCI-H23 lung = test system: NCI-H23 lung
SK-OV-3 ovarian = test system: SK-OV-3 ovarian

SMILES	GI50 (BT-549 breast)	TGI (BT-549 breast)	GI50 (SR leukemia)	TGI (SR leukemia)	GI50 (SK-MEL-2 melanoma)	TGI (SK-MEL-2 melanoma) [µM]	GI50 (A498 renal)	TGI (A498 renal)	GI50 (NCI-H226 lung)	TGI (NCI-H226 lung)	GI50 (UO-31 renal)	TGI (UO-31 renal)	GI50 (RPMI-8226 leukemia)	TGI (RPMI-8226 leukemia)	GI50 (MDA-MB-231 breast)	TGI (MDA-MB-231 breast)	TGI (NCI-H23 lung)	TGI (SK-OV-3 ovarian)	GI50 (NCI-H23 lung)	GI50 (SK-OV-3 ovarian)
[N-]=[N+]=NCCCn1c2c(c3ccccc3c1=O)C(=O)c1cc3c(cc1-2)OCO3	> 100 µM	> 100 µM	0.157 µM	> 100 µM	> 100 µM	> 100	75 µM	> 100 µM	> 100 µM	> 100 µM	> 100 µM	> 100 µM	> 100 µM	> 100 µM	> 100 µM	> 100 µM	–	–	–	–
C=C1CC2(CC(c3ccccc3C)OC(c3ccccc3C)C2)OC1=O (stereo not drawn)	–	4.09 µM	–	> 26.8 µM	–	4.13	–	21.6 µM	–	18.7 µM	–	11.3 µM	–	4.12 µM	–	3.17 µM	3.9 µM	24.2 µM	–	–
COc1cc2cc(C(=O)Nc3ccccc3)c(N)nc2cc1OC	25.1 µM	> 100 µM	33.9 µM	> 100 µM	69.1 µM	> 100	4.7 µM	30.9 µM	54.4 µM	> 100 µM	25.7 µM	> 100 µM	28.3 µM	> 100 µM	59.6 µM	> 100 µM	> 100 µM	> 100 µM	73.9 µM	> 100 µM
Cn1cc(-c2[nH]c3cc(NC(=O)[C@H](N)C4CCCCC4)cc4c3c2C=NNC4=O)cn1	0.215 µM and 0.375 µM	1.41 µM and 5.85 µM	0.0566 µM and 0.12 µM	0.622 µM and 1.1 µM	0.262 µM	> 10	0.0542 µM and 0.0975 µM	0.352 µM and 0.579 µM	0.963 µM and 0.398 µM	17.8 µM and > 10 µM	2.54 µM and 2.35 µM	9.07 µM and > 10 µM	3.18 µM and 3.24 µM	11.5 µM and > 10 µM	0.866 µM and 0.562 µM	12.4 µM and > 10 µM	9.52 µM and > 10 µM	11.4 µM and > 10 µM	0.267 µM and 0.197 µM	0.302 µM and 0.309 µM
Cc1cc(S(=O)(=O)Nc2nc3ccccc3s2)c(SCc2ccccc2)cc1Cl	20.9 µM	60.5 µM	18.3 µM	58 µM	37.2 µM	> 100	12.9 µM	28.6 µM	19.3 µM	45.9 µM	19.4 µM	45.9 µM	9.25 µM	37.2 µM	16.9 µM	37.7 µM	26.7 µM	98.4 µM	13.8 µM	32.4 µM
Cc1cc(C(=O)NOCCO)c(Nc2ccc(I)cc2F)n(C)c1=O	> 100 µM	> 100 µM	> 10 µM and 29.5 µM	> 100 µM	0.00299 µM and < 0.01 µM	–	0.00323 µM and 0.0103 µM	0.0286 µM and 0.0435 µM	> 10 µM and 5.83 µM	> 100 µM	0.0289 µM and < 0.045 µM	> 100 µM	> 10 µM and 37.9 µM	> 100 µM	0.0075 µM and < 0.01 µM	> 100 µM	> 100 µM	> 100 µM	0.0237 µM and 0.0131 µM	> 10 µM and 51.6 µM
Nc1nc(N)c2c(n1)NC(c1ccc(Cl)cc1)C1CCc3ccccc3C1=N2 (stereo not drawn)	9.01 µM	22.6 µM	1.73 µM	5.01 µM	10.6 µM	24.6	5.34 µM	19 µM	8.58 µM	27.8 µM	3.63 µM	17.4 µM	2.75 µM	11.5 µM	9.73 µM	21.8 µM	18 µM	23 µM	4.88 µM	11 µM
OC(CBr)C(O)C(O)C(O)CBr (stereo not drawn)	–	> 77 µM	–	> 100 µM	–	> 100	–	> 100 µM	–	> 100 µM	> 100 µM	> 100 µM	–	> 100 µM	–	> 100 µM	> 100 µM	> 100 µM	12 µM and > 61.1 µM	–
COc1cccc(/C=C/C(=O)c2cc3c(N)c(C(=O)Nc4ccccc4)sc3nc2C)c1	1.19 µM	4.06 µM	1.28 µM	6.46 µM	1.75 µM	8.63	1.18 µM	4.41 µM	1.15 µM	2.75 µM	0.842 µM	1.62 µM	1.18 µM	2.54 µM	1.79 µM	11.7 µM	3.05 µM	19.8 µM	1.2 µM	4.96 µM
Nc1[nH]c(=S)[nH]c(=O)c1N=Nc1c(Br)cc(S(N)(=O)=O)cc1Br	–	> 100 µM	–	> 100 µM	–	> 100	–	> 100 µM	–	> 100 µM	–	> 100 µM	–	> 100 µM	–	> 100 µM	> 100 µM	> 100 µM	–	–
O=C(C#Cc1ccccc1)N1CCCCC1	–	> 100 µM	–	> 100 µM	–	> 100	–	> 100 µM	–	> 100 µM	–	–	–	> 100 µM	–	> 100 µM	> 100 µM	> 100 µM	–	–
CCN(Cc1c(F)cccc1C(F)(F)F)c1ccc(CO)c(Cl)c1	17.7 µM	32 µM	14.5 µM	36.5 µM	3.33 µM	24.5	< 0.0191 µM	0.0463 µM	0.035 µM	0.154 µM	14.6 µM	28.3 µM	1.47 µM	21.9 µM	14.6 µM	28.3 µM	31.7 µM	26.8 µM	14.4 µM	13.7 µM
Cc1c(-c2c(F)cc(C(N)=O)c3[nH]c4c(c23)CC[C@H](C(C)(C)O)C4)cccc1-n1c(=O)c2cccc(F)c2n(C)c1=O	3.93 µM	63 µM	1.88 µM	5.81 µM	3.05 µM	26	2.8 µM	10.2 µM	3.84 µM	26.4 µM	1.01 µM	5.59 µM	2.82 µM	9.01 µM	4.34 µM	> 100 µM	> 100 µM	> 100 µM	2.79 µM	6.35 µM
CC#CC#C/C=C1/C=CC2(CCCCO2)O1 (stereo not drawn)	–	> 100 µM	–	> 100 µM	–	> 100	–	> 100 µM	–	> 100 µM	–	> 100 µM	–	–	–	> 100 µM	> 100 µM	> 100 µM	–	–
Fc1ccc(Nc2ccnc(N3CCN(c4ccnc5cc(Cl)ccc45)CC3)n2)cc1	2.95 µM	8.57 µM	2.61 µM	8.76 µM	2.16 µM	4.07	1.81 µM	9.61 µM	2.52 µM	17.5 µM	0.845 µM	4.54 µM	2.19 µM	6.22 µM	1.51 µM	4.33 µM	–	> 100 µM	–	5.02 µM
